Measurements published in patent publication US20240174629A1 (OTCPHARM JSC, priority 2021, published 2024).
In brackets after ≈: the same amount, converted by molar mass.

Columns and labels:
[1] = Cytotoxicity, microtetrazolium test (MTT); conditions: dog, MDCK cells, CC50 (MDCK), mean ±SD

melting point [°C] | SMILES | CC50 at 48 h [1] [µg/mL]
176 to 180 | CCOC(=O)c1c(N(Cc2ccccc2Cl)C(C)=O)sc2cc(O)ccc12 | –
174 to 176 | CCOC(=O)c1c(N(Cc2ccc(Cl)cc2)C(C)=O)sc2c(Cl)c(O)ccc12 | –
172 to 176 | CCOC(=O)c1c(N(Cc2ccc(Cl)cc2)C(C)=O)sc2cc(O)ccc12 | –
170 to 172 | CCOC(=O)c1c(N(Cc2ccc(C)cc2)C(C)=O)sc2c(Cl)c(O)ccc12 | –
145 to 147 | CCOC(=O)c1c(N(Cc2ccc(C)cc2)C(C)=O)sc2cc(O)ccc12 | –
229 to 233 | COC(=O)c1c(N(Cc2ccccc2Cl)C(C)=O)sc2c(Cl)c(O)ccc12 | –
195 to 197 | COC(=O)c1c(N(Cc2ccc(C)cc2)C(C)=O)sc2c(Cl)c(O)ccc12 | –
160 to 164 | COC(=O)c1c(N(Cc2ccc(C)cc2)C(C)=O)sc2cc(O)ccc12 | –
182 to 186 | COC(=O)c1c(N(Cc2ccccc2C(F)(F)F)C(C)=O)sc2c(Cl)c(O)ccc12 | –
165 to 169 | COC(=O)c1c(N(Cc2ccccc2C(F)(F)F)C(C)=O)sc2cc(O)ccc12 | –
220 to 224 | CC(=O)N(Cc1ccc(F)cc1)c1sc2c(Cl)c(O)ccc2c1C(=O)O | –
145 to 150 | COC(=O)c1c(N(Cc2cccc(F)c2)C(C)=O)sc2cc(O)ccc12 | –
210 to 212 | COC(=O)c1c(N(Cc2cccc3ccccc23)C(C)=O)sc2c(Cl)c(O)ccc12 | –
200 to 202 | COC(=O)c1c(N(Cc2ccc3ccccc3c2)C(C)=O)sc2cc(O)ccc12 | –
150 to 155 | COC(=O)c1c(N(CCc2ccccc2)C(C)=O)sc2c(Cl)c(O)ccc12 | –
182 to 184 | COC(=O)c1c(N(Cc2ccccc2C)C(C)=O)sc2c(Cl)c(O)ccc12 | –
164 to 168 | COC(=O)c1c(N(Cc2ccccc2C)C(C)=O)sc2cc(O)ccc12 | –
204 to 208 | COC(=O)c1c(N(Cc2ccccc2C#N)C(C)=O)sc2c(Cl)c(O)ccc12 | –
168 to 172 | COC(=O)c1c(N(Cc2ccccc2C#N)C(C)=O)sc2cc(O)ccc12 | –
172 to 174 | COC(=O)c1c(N(CCc2ccccc2F)C(C)=O)sc2c(Cl)c(O)ccc12 | –
183 to 185 | COC(=O)c1c(N(CCc2ccccc2F)C(C)=O)sc2cc(O)ccc12 | –
176 to 178 | CC(=O)N(Cc1ccccc1)c1sc2c(Cl)c(O)ccc2c1C#N | –
185 to 190 | CC(=O)N(Cc1ccccc1)c1sc2cc(O)ccc2c1C(=O)OC(C)(C)C | –
230 to 234 | CC(=O)N(Cc1ccccc1F)c1sc2c(Cl)c(O)ccc2c1C(=O)O | –
140 to 145 | CC(=O)N(Cc1ccccc1F)c1sc2cc(O)ccc2c1C(=O)O | –
145 to 147 | CNC(=O)c1c(N(Cc2ccccc2)C(C)=O)sc2c(CN(C)C)c(O)ccc12 | –
– | COC(=O)c1c(N(Cc2ccccc2)C(C)=O)sc2c(Cl)c(O)ccc12 [Example 3, Methyl 2-[acetyl(benzyl)amino]-7-chloro-6-hydroxy-1-benzothiophene-3-carboxylate] | 4.5 ± 0.3 (≈ 11.5 µM)
– | CC(=O)N(Cc1ccccc1)c1sc2cc(O)ccc2c1C#N [Example 47, N-benzyl-N-(3-cyano-6-hydroxy-1-benzothiophene-2-yl)acetamide] | 16.8 ± 1.5 (≈ 52.1 µM)

SMILES | melting point [°C] | CC50 at 48 h [1] [µg/mL]
COC(=O)c1c(N(Cc2ccc(F)cc2)C(C)=O)sc2c(CN(C)C)c(O)ccc12 | 145 to 149 | –
CCOC(=O)c1c(N(Cc2ccccc2)C(C)=O)sc2c(Cl)c(O)ccc12 [Example 1, Ethyl 2-[acetyl(benzyl)amino]-7-chloro-6-hydroxy-1-benzothiophene-3-carboxylate] | 151 to 155 | > 300
CCOC(=O)c1c(N(Cc2ccccc2)C(C)=O)sc2cc(O)ccc12 [Example 2, Ethyl 2-[acetyl(benzyl)amino]-6-hydroxy-1-benzothiophene-3-carboxylate] | 146 to 148 | 11.7 ± 0.6 (≈ 31.7 µM)
CC(=O)N(Cc1ccccc1)c1sc2c(Cl)c(O)ccc2c1C(=O)OC(C)(C)C [Example 5, Tert-butyl 2-[acetyl(benzyl)amino]-7-chloro-6-hydroxy-1-benzothiophene-3-carboxylate] | 200 to 205 | 4.1 ± 0.2 (≈ 9.49 µM)
CC(=O)N(Cc1ccccc1)c1sc2c(Cl)c(O)ccc2c1C(=O)OC(C)C [Example 7, Isopropyl 2-[acetyl(benzyl)amino]-7-chloro-6-hydroxy-1-benzothiophene-3-carboxylate] | 164 to 168 | 2.2 ± 0.3 (≈ 5.26 µM)
CC(=O)N(Cc1ccccc1)c1sc2cc(O)ccc2c1C(=O)OC(C)C [Example 8, Isopropyl 2-[acetyl(benzyl)amino]-6-hydroxy-1-benzothiophene-3-carboxylate] | 126 to 130 | 13.9 ± 1.1 (≈ 36.2 µM)
CCOC(=O)c1c(N(Cc2ccccc2Cl)C(C)=O)sc2c(Cl)c(O)ccc12 [Example 9, Ethyl 2-[acetyl(2-chlorobenzyl)amino]-7-chloro-6-hydroxy-1-benzothiophene-3-carboxylate] | 174 to 178 | 8.3 ± 0.3 (≈ 18.9 µM)
COC(=O)c1c(N(Cc2ccccc2Cl)C(C)=O)sc2cc(O)ccc12 [Example 16, Methyl 2-[acetyl(2-chlorobenzyl)amino]-6-hydroxy-1-benzothiophene-3-carboxylate] | 220 to 224 | 21 (≈ 53.9 µM)
COC(=O)c1c(N(Cc2ccc(C(F)(F)F)cc2)C(C)=O)sc2c(Cl)c(O)ccc12 [Example 21, Methyl 2-[acetyl(4-trifluoromethylbenzyl)amino]-7-chloro-6-hydroxy-1-benzothiophene-3-carboxylate] | 176 to 180 | 5.6 ± 0.2 (≈ 12.2 µM)
COC(=O)c1c(N(Cc2ccc(C(F)(F)F)cc2)C(C)=O)sc2cc(O)ccc12 [Example 22, Methyl 2-[acetyl(4-trifluoromethylbenzyl)amino]-6-hydroxy-1-benzothiophene-3-carboxylate] | 171 to 175 | 3.2 ± 0.8 (≈ 7.56 µM)
COC(=O)c1c(N(Cc2ccccc2F)C(C)=O)sc2cc(O)ccc12 [Example 24, Methyl 2-[acetyl(2-fluorobenzyl)amino]-6-hydroxy-1-benzothiophene-3-carboxylate] | 165 to 167 | > 300
COC(=O)c1c(N(Cc2cccc(F)c2)C(C)=O)sc2c(Cl)c(O)ccc12 [Example 25, Methyl 2-[acetyl(3-fluorobenzyl)amino]-7-chloro-6-hydroxy-1-benzothiophene-3-carboxylate] | 152 to 155 | 25.5 ± 2.7 (≈ 62.5 µM)
COC(=O)c1c(N(Cc2ccc(F)cc2)C(C)=O)sc2c(Cl)c(O)ccc12 [Example 27, Methyl 2-[acetyl(4-fluorobenzyl)amino]-7-chloro-6-hydroxy-1-benzothiophene-3-carboxylate] | 233 to 235 | 39.8 ± 2.5 (≈ 97.6 µM)
COC(=O)c1c(N(Cc2ccc(F)cc2)C(C)=O)sc2cc(O)ccc12 [Example 28, Methyl 2-[acetyl(4-fluorobenzyl)amino]-6-hydroxy-1-benzothiophene-3-carboxylate] | 198 to 202 | 240 ± 19 (≈ 643 µM)
COC(=O)c1c(N(Cc2ccc(F)cc2F)C(C)=O)sc2c(Cl)c(O)ccc12 [Example 29, Methyl 2-[acetyl(2,4-difluorobenzyl)amino]-7-chloro-6-hydroxy-1-benzothiophene-3-carboxylate] | 205 to 210 | > 300
COC(=O)c1c(N(Cc2ccc(F)cc2F)C(C)=O)sc2cc(O)ccc12 [Example 30, Methyl 2-[acetyl(2,4-difluorobenzyl)amino]-6-hydroxy-1-benzothiophene-3-carboxylate] | 178 to 180 | > 300
COC(=O)c1c(N(Cc2cccc3ccccc23)C(C)=O)sc2cc(O)ccc12 [Example 32, Methyl 2-[acetyl(1-naphthylmethyl)amino]-6-hydroxy-1-benzothiophene-3-carboxylate] | 198 to 202 | > 300
COC(=O)c1c(N(Cc2ccc3ccccc3c2)C(C)=O)sc2c(Cl)c(O)ccc12 [Example 33, Methyl 2-[acetyl(2-naphthylmethyl)amino]-7-chloro-6-hydroxy-1-benzothiophene-3-carboxylate] | 185 to 190 | 3.7 ± 0.4 (≈ 8.41 µM)
COC(=O)c1c(N(CCc2ccccc2)C(C)=O)sc2cc(O)ccc12 [Example 36, Methyl 2-[acetyl(2-phenylethyl)amino]-6-hydroxy-1-benzothiophene-3-carboxylate] | 190 to 194 | > 300
COC(=O)c1c(N(C(C)=O)C(C)c2ccccc2)sc2c(Cl)c(O)ccc12 (centres unmarked) [Example 37, Methyl 2-[acetyl(1-phenylethyl)amino]-7-chloro-6-hydroxy-1-benzothiophene-3-carboxylate] | 195 to 200 | 24.5 ± 2.2 (≈ 60.7 µM)
COC(=O)c1c(N(C(C)=O)C(C)c2ccccc2)sc2cc(O)ccc12 (centres unmarked) [Example 38, Methyl 2-[acetyl(1-phenylethyl)amino]-6-hydroxy-1-benzothiophene-3-carboxylate] | 152 to 157 | 30 (≈ 81.2 µM)
COC(=O)c1c(N(Cc2ccc(C(C)C)cc2)C(C)=O)sc2c(Cl)c(O)ccc12 [Example 41, Methyl 2-[acetyl(4-isopropylbenzyl)amino]-7-chloro-6-hydroxy-1-benzothiophene-3-carboxylate] | 183 to 186 | 5 ± 0.5 (≈ 11.6 µM)
COC(=O)c1c(N(Cc2ccc(C(C)C)cc2)C(C)=O)sc2cc(O)ccc12 [Example 42, Methyl 2-[acetyl(4-isopropylbenzyl)amino]-6-hydroxy-1-benzothiophene-3-carboxylate] | 141 to 145 | 10 (≈ 25.2 µM)
COC(=O)c1c(N(Cc2ccccc2Cl)C(C)=O)sc2c(CN(C)C)c(O)ccc12 [Example 51] | 132 to 136 | > 300
COC(=O)c1c(N(Cc2cccc(F)c2)C(C)=O)sc2c(CN(C)C)c(O)ccc12 [Example 53] | 142 to 144 | > 300
